# Data published in ChEMBL document CHEMBL1126920, “Design and synthesis of an orally active macrocyclic neutral endopeptidase 24.11 inhibitor” (J Med Chem, 1993).
# Target: T1, Neprilysin (Rattus norvegicus, UniProt P07861)
# T1 sequence (P07861 whole entry): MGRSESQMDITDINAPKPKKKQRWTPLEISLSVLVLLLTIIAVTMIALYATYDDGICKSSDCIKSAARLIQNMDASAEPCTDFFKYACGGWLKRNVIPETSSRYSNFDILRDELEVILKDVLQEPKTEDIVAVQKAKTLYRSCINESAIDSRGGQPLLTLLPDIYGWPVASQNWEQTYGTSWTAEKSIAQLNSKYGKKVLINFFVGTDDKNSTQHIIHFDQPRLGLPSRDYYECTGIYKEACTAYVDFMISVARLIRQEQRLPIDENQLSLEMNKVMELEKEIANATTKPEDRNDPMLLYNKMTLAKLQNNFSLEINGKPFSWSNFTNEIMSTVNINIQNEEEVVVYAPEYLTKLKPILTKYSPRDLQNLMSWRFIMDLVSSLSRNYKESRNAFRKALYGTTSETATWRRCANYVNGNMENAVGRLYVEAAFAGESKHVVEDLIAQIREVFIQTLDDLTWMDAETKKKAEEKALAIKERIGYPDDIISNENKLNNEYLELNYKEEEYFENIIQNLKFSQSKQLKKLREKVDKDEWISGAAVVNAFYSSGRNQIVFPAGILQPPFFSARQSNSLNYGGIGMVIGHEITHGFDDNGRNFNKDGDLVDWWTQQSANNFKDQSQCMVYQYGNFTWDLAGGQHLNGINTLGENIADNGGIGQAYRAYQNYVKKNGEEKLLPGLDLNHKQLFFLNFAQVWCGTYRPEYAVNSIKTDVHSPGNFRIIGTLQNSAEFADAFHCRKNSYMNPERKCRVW
# Assay: Inhibition of NEP 24.11 from rat kidney
# Format: tissue-based
row,Compound,IC50
1,O=C1NC(C(=O)Nc2cccnc2)CCCCCCC1CS (configuration not stated),59 nM
2,O=C1NC(C(=O)N2CCC[C@H]2C(=O)O)CCCCCCC1CS (some centres not stated),2 nM
3,O=C1NC(C(=O)Nc2ccccc2)CCCCCCC1CS (configuration not stated),551 nM
4,O=C1NC(C(=O)O)CCCCCCC1CS (racemic),4 nM
5,"O=C1NC(C(=O)N2C[C@H](O)C[C@H]2C(=O)O)CCCCCCC1CS (single isomer, unassigned; (-))",0.8 nM
6,CS(=O)(=O)CCCNC(=O)C1CCCCCCC(CS)C(=O)N1 (configuration not stated),63 nM
7,"O=C1NC(C(=O)O)CCCCCCC1CS (single isomer, unassigned; (-))",> 1000 nM

# Other lines, results leading:
row,IC50,Compound
1,11 nM,O=C1NC(C(=O)N[C@H](CO)C(=O)O)CCCCCCC1CS (some centres not stated)
2,14 nM,NCCCC[C@@H](NC(=O)C1CCCCCCC(CS)C(=O)N1)C(=O)O (some centres not stated)
3,3 nM,"O=C1NC(C(=O)O)CCCCCCC1CS (single isomer, unassigned; (+))"
4,209 nM,O=C1NC(C(=O)NCCCO)CCCCCCC1CS (configuration not stated)
5,84 nM,O=C1NC(C(=O)NCCOCCO)CCCCCCC1CS (configuration not stated)
